# Results reported in patent US10738076B2, “Lanosterol prodrug compound and preparation method therefor and use thereof” (ZHONGSHAN OPHTHALMIC CENTER, SUN YAT-SEN UNIVERSITY, priority 2017, dated 2020).
# “Also recorded” adds a separate entry of the source. Read-outs that look alike come from different tables or passages of the source.
# What was measured:
# [1] = tested on: sodium selenite-induced neonatal New Zealand rabbit cataract model; test: sodium selenite-induced cataract model, lens transparency test in vitro; type: in vivo, neonatal New Zealand rabbits; settings: after 42 days of administration
# Method: (§1) P7 days old neonatal New Zealand rabbits, normal grade, and 5 young rabbits per litter were breast-fed with a mother rabbit.
# (§2) The experimental young rabbits were randomly divided into 5 groups with 5 rabbits per group.
# (§3) 1) Normal control group (NC): in the P10 day, young rabbits were injected subcutaneously with 0.25 mL physiological saline from the neck, and were not administered after the P15 day.
# (§4) 2) Model control group (MC): in the P10 day, young rabbits were injected subcutaneously with sodium selenite solution (in physiological saline) at 20 μmol/kg body weight, and after the P15 day, drug-free blank eyes drops was dripped into the right eye 3 times every day for 42 days.
# (§5) 3) Positive control group (PC): in the P10 day, young rabbits were injected subcutaneously with sodium selenite solution (in physiological saline) at 20 μmol/kg body weight, and after the P15 day, kary uni eye drops (Santen Pharmaceutical Co., Ltd in Japan) was dripped into the right eye 3 times every day for 42 days.
# (§6) 4) Lanosterol eye drops treatment group (LT): in the P10 day, young rabbits were injected subcutaneously with sodium selenite solution (in physiological saline) at 20 μmol/kg body weight, and after the P15 day, lanosterol eye drops was dripped into the right eye 3 times every day for 42 days.
# (§7) 5) Lanosterol prodrug 026 eye drops treatment group (026): in the P10 day, young rabbits were injected subcutaneously with sodium selenite solution (in physiological saline) at 20 μmol/kg body weight, and after the P15 day, lanosterol prodrug 026 eye drops was dripped into the right eye 3 times every day for 42 days.
# 2) Lens transparency test in vitro: on the last day, the animal's eyeball was dissected, the lens containing the capsule was completely separated, and the lens was placed on a grid paper (2.12×2.12 mm).
# [2] = tested on: sodium selenite-induced neonatal New Zealand rabbit cataract model; test: sodium selenite-induced cataract model, slit lamp observation; type: in vivo, neonatal New Zealand rabbits; settings: eye drops right eye 3 times every day, 42 days, compared with pre-dose
# Method: as §1, §2, §3, §4, §5
# 4) Lanosterol eye drops treatment group (LT): in the P10 day, young rabbits were injected subcutaneously with sodium selenite solution (in physiological saline) at 20 μmol/kg body weight, and after the P15 day, lanosterol eye drops was dripped into the right eye 3 times every day for 42 days. […]
# [3] = ophthalmic drug penetration and drug conversion to lanosterol in vivo (aqueous humor concentration after eye drops); set-up: species or system New Zealand white rabbits
# Method: In this study, New Zealand white rabbits (body weight was more than 2 kg, age was more than 12 weeks) were used as experimental animals. Each compound was studied with two New Zealand white rabbits. Each rabbit was instilled with […] eye drops in each eyes three eyes were used to collect aqueous humor samples and one eye was used as a backup. […] After the eye drops was dripped into the rabbit's eyes, the anterior aqueous humor was collected at 0.5, 2, 4 and 6 hours after administration. The volume of each sample was not more than 50 μL. Each animal was given mild anesthesia before collecting samples. Three samples were collected at every time point. The collected aqueous humor samples were stored in dry ice immediately after collection or stored in a refrigerator at −80±10° C. After the sample collection, the animals were euthanized. The concentration of the compound in each sample was determined using a triple quadrupole mass spectrometer (API 4000).
# [4] = tested on: lens glutathione peroxidase (GSH-PX) activity; test: ultraviolet-induced cataract model, lens GSH-PX activity assay; type: in vivo, New Zealand rabbits; settings: after 42 days of administration; for effect on lens GSH-PX activity compared to the other treatment groups: 026 vs kary uni p<0.05
# Method: (§8) Adult New Zealand rabbits 2.0-2.5 kg, normal grade, male and female, a total of 25.
# (§9) The experimental rabbits were randomly divided into 5 groups with 5 rabbits per group.
# (§10) 1) Normal control group (NC): normal feeding, no drug administration.
# (§11) 2) Model control group (MC): 313 nm UV irradiation for 24 hours to make model, then drug-free blank eye drops was dripped to the right eye 3 times every day for 42 days.
# (§12) 3) Positive control group (PC): 313 nm UV irradiation for 24 hours to make model, then kary uni eye drops (Santen Pharmaceutical Co., Ltd in Japan) was dripped into the right eye 3 times every day for 42 days.
# (§13) 4) Lanosterol eye drops treatment group (LT): 313 nm UV irradiation for 24 hours to make model, then lanosterol eye drops was dripped into the right eye 3 times every day for 42 days.
# (§14) 5) Lanosterol prodrug 026 eye drops treatment group (026): 313 nm UV irradiation for 24 hours to make model, then the lanosterol prodrug 026 eye drops was dripped into the right eye 3 times every day for 42 days.
# (§15) 3) Glutathione peroxidase (GSH-PX) activity assay: GSH-PX activity of the isolated rabbit lens in each group was determined by the method provided in the specification of GSH-PX activity detection kit (Nanjing Jiancheng Bioengineering Institute). The experimental data was analyzed by One-Way ANOVA with SPSS statistical software. The LSD method was used to compare the groups, and the statistical difference level was p<0.05.
# [5] = tested on: lens glutathione peroxidase (GSH-PX) activity; test: sodium selenite-induced cataract model, lens GSH-PX activity assay; type: in vivo, neonatal New Zealand rabbits; settings: after 42 days of administration; for effect on lens GSH-PX activity compared to the other treatment groups: 026 vs kary uni p<0.01
# Method: as §1, §2, §3, §4, §5, §6, §7, §15
# [6] = tested on: ultraviolet-induced New Zealand rabbit cataract model; test: ultraviolet-induced cataract model, slit lamp observation; type: in vivo, New Zealand rabbits; settings: ultraviolet (313 nm, 24 hours) model, eye drops right eye 3 times every day, 42 days, compared with pre-dose
# Method: as §8, §9, §10, §11, §12, §13, §14
# [7] = tested on: ultraviolet-induced New Zealand rabbit cataract model; test: ultraviolet-induced cataract model, lens transparency test in vitro; type: in vivo, New Zealand rabbits; settings: after 42 days of administration
# Method: as §8, §9, §10, §11, §12, §13, §14
# 2) lens transparency test in vitro: on the last day, the animal's eyeball was dissected, the lens containing the capsule was completely separated, and the lens was placed on a grid paper (2.12×2.12 mm).
# cataract = settings: background, published in Nature; cited from earlier work
# [8] = tested on: pre-formed lens protein aggregates; settings: in vitro at the cellular level; background, published in Nature; cited from earlier work
# [9] = listed as lanosterol prodrug 026
# [10] = 6 hours after 250 nmol dripped into each eye of New Zealand white rabbit
# [11] = in vivo, 250 nmol per eye, 0.5 hour after 250 nmol dripped into each eye of New Zealand white rabbit, read-out: Average concentration of the dripped compound itself in the aqueous humor
# [12] = in vivo, 250 nmol per eye, 2 hours after 250 nmol dripped into each eye of New Zealand white rabbit, read-out: Average concentration of the dripped compound itself in the aqueous humor
# [13] = 026 and kary uni p<0.01, lanosterol p>0.05, listed as lanosterol prodrug 026
# [14] = 0.5 hour after 250 nmol dripped into each eye of New Zealand white rabbit
# [15] = 2 hours after 250 nmol dripped into each eye of New Zealand white rabbit
# [16] = 4 hours after 250 nmol dripped into each eye of New Zealand white rabbit
# [17] = 026 and kary uni p<0.01, lanosterol p>0.05
structure (smiles),measurement,setting,value
CC(C)=CCC[C@@H](C)[C@H]1CC[C@@]2(C)C3=C(CC[C@]12C)[C@@]1(C)CC[C@H](OC(=O)c2ccccc2O)C(C)(C)C1CC3 (stereo partly shown) [Compound 8],lens transparency of the right eye compared to the MC group,[1],significantly higher than that of the MC group
same,lens transparency of the right eye compared to the NC group,[1],still lower than that of the NC group
same,lens transparency of the administered right eye compared to the left eye (self-control),[1]; [9],significantly higher than that of the left eye; also recorded: improve lens transparency
same,"cataract symptoms, slit lamp observation",[2]; [9],cataract symptoms were significantly reduced; also recorded: could alleviate the cataract symptoms
same,Average concentration of the dripped compound itself in the aqueous humor,[3]; [10],BQL
same,concentration at 0.5 h,[3]; [11],41 nM
same,concentration at 2 h,[3]; [12],33.3 nM
same,concentration at 4 h,"[3]; in vivo, 250 nmol per eye, 4 hours after 250 nmol dripped into each eye of New Zealand white rabbit, read-out: Average concentration of the dripped compound itself in the aqueous humor",25.5 nM
same,lens GSH-PX activity compared to the MC group,[4]; [13],could increase the GSH-PX activity of the lens; also recorded: improve lens transparency and lens GSH-PX activity
same,effect on lens GSH-PX activity compared to the other treatment groups,[4],better than that of kary uni
same,lens GSH-PX activity compared to the MC group,[5]; [13],could increase the GSH-PX activity of the lens; also recorded: improve lens transparency and lens GSH-PX activity
same,effect on lens GSH-PX activity compared to the other treatment groups,[5],better than that of kary uni
same,"cataract symptoms, slit lamp observation",[6]; [9],cataract symptoms were significantly reduced; also recorded: could alleviate the cataract symptoms
same,lens transparency of the right eye compared to the MC group,[7],significantly higher than that of the MC group
same,lens transparency of the right eye compared to the NC group,[7],still lower than that of the NC group
same,lens transparency of the administered right eye compared to the left eye (self-control),[7]; [9],significantly higher than that of the left eye; also recorded: improve lens transparency
COC(=O)[C@H](C)NP(=O)(Oc1ccccc1)O[C@H]1CC[C@]2(C)C3=C(CCC2C1(C)C)[C@]1(C)CC[C@H]([C@H](C)CCC=C(C)C)[C@@]1(C)CC3 (stereo partly shown) [Compound 1],Average concentration of Lanosterol in the aqueous humor after the prodrug was dripped,[3]; 0.5 hour after 250 nmol prodrug dripped into each eye of New Zealand white rabbit,BQL
same,Average concentration of Lanosterol in the aqueous humor after the prodrug was dripped,[3]; 2 hours after 250 nmol prodrug dripped into each eye of New Zealand white rabbit,BQL
same,Average concentration of the dripped compound itself in the aqueous humor,[3]; [10],BQL
same,concentration at 0.5 h,[3]; [11],7.5 nM
same,concentration at 2 h,[3]; [12],8.6 nM
CC(C)=CCC[C@@H](C)[C@H]1CC[C@@]2(C)C3=C(CC[C@]12C)[C@@]1(C)CC[C@H](OC(=O)c2ncon2)C(C)(C)C1CC3 (stereo partly shown) [Compound 10],Average concentration of the dripped compound itself in the aqueous humor,[3]; [14],BQL
same,concentration at 2 h,[3]; [12],37.9 nM
CC(C)=CCC[C@@H](C)[C@H]1CC[C@@]2(C)C3=C(CC[C@]12C)[C@@]1(C)CC[C@H](OC(=O)c2ccc([N+](=O)[O-])cc2)C(C)(C)C1CC3 (stereo partly shown) [Compound 4],Average concentration of the dripped compound itself in the aqueous humor,[3]; [14],BQL
same,Average concentration of the dripped compound itself in the aqueous humor,[3]; [15],BQL
same,Average concentration of the dripped compound itself in the aqueous humor,[3]; [16],BQL
same,Average concentration of the dripped compound itself in the aqueous humor,[3]; [10],BQL
CC(C)=CCC[C@@H](C)[C@H]1CC[C@@]2(C)C3=C(CC[C@]12C)[C@@]1(C)CC[C@H](O)C(C)(C)[C@@H]1CC3 [Lanosterol],lens transparency of the administered right eye compared to the left eye (self-control),[1],no significant change in lens transparency
same,"cataract symptoms, slit lamp observation",[2],did not change significantly
same,concentration at 0.5 h,"[3]; aqueous humor, topical, 250 nmol per eye, 0.5 hour after 250 nmol dripped into each eye of New Zealand white rabbit, read-out: Average concentration of the dripped compound itself in the aqueous humor",106 nM
same,concentration at 2 h,"[3]; aqueous humor, topical, 250 nmol per eye, 2 hours after 250 nmol dripped into each eye of New Zealand white rabbit, read-out: Average concentration of the dripped compound itself in the aqueous humor",496 nM
same,concentration at 4 h,"[3]; aqueous humor, topical, 250 nmol per eye, 4 hours after 250 nmol dripped into each eye of New Zealand white rabbit, read-out: Average concentration of the dripped compound itself in the aqueous humor",300 nM
same,concentration at 6 h,"[3]; aqueous humor, topical, 250 nmol per eye, 6 hours after 250 nmol dripped into each eye of New Zealand white rabbit, read-out: Average concentration of the dripped compound itself in the aqueous humor",225 nM
same,penetration into the aqueous humor / permeability,"[3]; eye drops, rabbit, in words",could penetrate into the aqueous humor
same,lens GSH-PX activity compared to the MC group,[4]; [17],no statistical difference compared to the MC group
same,effect on lens GSH-PX activity compared to the other treatment groups,[4],significantly lower than that of 026 and kary uni
same,lens GSH-PX activity compared to the MC group,[5]; [17],no statistical difference compared to the MC group
same,effect on lens GSH-PX activity compared to the other treatment groups,[5],significantly lower than that of 026 and kary uni
same,effect on cataract and lens transparency in vivo,cataract,can reverse the condition of cataract
same,"cataract symptoms, slit lamp observation",[6],did not change significantly
same,effect on pre-formed lens protein aggregates,[8],significantly reduce pre-formed lens protein aggregates
same,lens transparency of the administered right eye compared to the left eye (self-control),[7],no significant change in lens transparency
CC(C)=CCC[C@@H](C)[C@H]1CC[C@@]2(C)C3=C(CC[C@]12C)[C@@]1(C)CC[C@H](OC(=O)c2ccno2)C(C)(C)C1CC3 (stereo partly shown) [Compound 9],Average concentration of the dripped compound itself in the aqueous humor,[3]; [14],BQL
same,Average concentration of the dripped compound itself in the aqueous humor,[3]; [15],BQL
CC(=O)Oc1ccccc1C(=O)O[C@H]1CC[C@]2(C)C3=C(CCC2C1(C)C)[C@]1(C)CC[C@H]([C@H](C)CCC=C(C)C)[C@@]1(C)CC3 (stereo partly shown) [Compound 12],AUC (exposure amount) of the dripped compound itself in the aqueous humor,[3]; 250 nmol dripped into each eye of New Zealand white rabbit,BQL
same,Average concentration of the dripped compound itself in the aqueous humor,[3]; [16],BQL
same,Average concentration of the dripped compound itself in the aqueous humor,[3]; [10],BQL
same,concentration at 0.5 h,[3]; [11],60 nM
same,concentration at 2 h,[3]; [12],15.6 nM
